Source: patent publication US10174013B2, “Benzimidazole derivatives as kinase inhibitors” (SELVITA S.A., priority 2012, dated 2019)
Structures can show the parent of a compound that is named as a salt. Where two headings read alike, the source gives them in different places.

Key:
Pim-1 = Pim-1 (Homo sapiens (Human), UniProt P11309); test: ADP-Glo Kinase Assay, Pim-1; type: biochemical; conditions: 1 μM compound; for inhibition at 1 µM: read-out: Pim-1 % INH (1 μM)
Method: (§1) Compounds of the present invention were tested for their inhibitory activity against Pim-1, Pim-2, Pim-3, Flt3 wt, Flt3 ITD, CDK2/E and DYRK1. The testing of the compounds was carried out using the ADP-Glo™ Kinase Assay from Promega Corporation (Madison, Wis., USA).
(§2) The ADP-Glo™ Kinase Assay is a luminescent ADP detection assay to measure kinase activity by quantifying the amount of ADP produced during a kinase reaction. The kinase assay is performed in kinase assay buffer (5 mM MOPS, pH 7.5, 5 mM MgCl2, 0.4 mM EDTA, 1.5 mM DTT). Test samples initially dissolved in DMSO at 10 mM were diluted with the assay buffer to 1000 nM. A 30 μL volume/well of a mixture of substrates containing ATP (final ATP concentration in each kinase assay was equal to its apparent ATP Km).
(§3) The assay was performed in two steps: first, after the kinase reaction, an equal volume of ADP-Glo™ Reagent was added to terminate the kinase reaction and deplete the remaining ATP. Second, the Kinase Detection Reagent was added to simultaneously convert ADP to ATP and allowed the newly synthesized ATP to be measured using a luciferase/luciferin reaction. The luminescent signal generated was proportional to the ADP concentration produced and was correlated with kinase activity. A microplate spectrophotometer (Synergy 2 multi-mode microplate reader [BioTek]) was used for detecting the luminescence. The data was normalized and the percent of inhibition was obtained according to the following equation: […]

Pim-2 = Pim-2 (Homo sapiens (Human), UniProt Q9P1W9); test: ADP-Glo Kinase Assay, Pim-2; type: biochemical; conditions: 1 μM compound; for inhibition at 1 µM: read-out: Pim-2 % INH (1 μM)
Chain of Pim-2 (Q9P1W9 whole entry): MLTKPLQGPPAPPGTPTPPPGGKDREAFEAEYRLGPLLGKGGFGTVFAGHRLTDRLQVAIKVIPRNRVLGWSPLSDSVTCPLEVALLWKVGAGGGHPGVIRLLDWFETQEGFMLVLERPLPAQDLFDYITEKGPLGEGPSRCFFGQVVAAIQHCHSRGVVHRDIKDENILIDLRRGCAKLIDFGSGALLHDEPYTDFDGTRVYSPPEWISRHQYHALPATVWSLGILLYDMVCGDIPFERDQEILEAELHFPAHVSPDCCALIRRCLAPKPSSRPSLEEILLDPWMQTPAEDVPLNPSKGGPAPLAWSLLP
Method: as §1, §2, §3

Pim-3 = Pim-3 (Homo sapiens (Human), UniProt Q86V86); test: ADP-Glo Kinase Assay, Pim-3; type: biochemical; conditions: 1 μM compound; for inhibition at 1 µM: read-out: Pim-3 % INH (1 μM)
Method: as §1, §2, §3

FLT3wt = FLT3wt (Homo sapiens (Human), UniProt P36888); test: ADP-Glo Kinase Assay, Flt3 wt; type: biochemical; conditions: 1 μM compound; for inhibition at 1 µM: read-out: Flt3wt % INH (1 μM)
Chain of FLT3wt (P36888 27-993): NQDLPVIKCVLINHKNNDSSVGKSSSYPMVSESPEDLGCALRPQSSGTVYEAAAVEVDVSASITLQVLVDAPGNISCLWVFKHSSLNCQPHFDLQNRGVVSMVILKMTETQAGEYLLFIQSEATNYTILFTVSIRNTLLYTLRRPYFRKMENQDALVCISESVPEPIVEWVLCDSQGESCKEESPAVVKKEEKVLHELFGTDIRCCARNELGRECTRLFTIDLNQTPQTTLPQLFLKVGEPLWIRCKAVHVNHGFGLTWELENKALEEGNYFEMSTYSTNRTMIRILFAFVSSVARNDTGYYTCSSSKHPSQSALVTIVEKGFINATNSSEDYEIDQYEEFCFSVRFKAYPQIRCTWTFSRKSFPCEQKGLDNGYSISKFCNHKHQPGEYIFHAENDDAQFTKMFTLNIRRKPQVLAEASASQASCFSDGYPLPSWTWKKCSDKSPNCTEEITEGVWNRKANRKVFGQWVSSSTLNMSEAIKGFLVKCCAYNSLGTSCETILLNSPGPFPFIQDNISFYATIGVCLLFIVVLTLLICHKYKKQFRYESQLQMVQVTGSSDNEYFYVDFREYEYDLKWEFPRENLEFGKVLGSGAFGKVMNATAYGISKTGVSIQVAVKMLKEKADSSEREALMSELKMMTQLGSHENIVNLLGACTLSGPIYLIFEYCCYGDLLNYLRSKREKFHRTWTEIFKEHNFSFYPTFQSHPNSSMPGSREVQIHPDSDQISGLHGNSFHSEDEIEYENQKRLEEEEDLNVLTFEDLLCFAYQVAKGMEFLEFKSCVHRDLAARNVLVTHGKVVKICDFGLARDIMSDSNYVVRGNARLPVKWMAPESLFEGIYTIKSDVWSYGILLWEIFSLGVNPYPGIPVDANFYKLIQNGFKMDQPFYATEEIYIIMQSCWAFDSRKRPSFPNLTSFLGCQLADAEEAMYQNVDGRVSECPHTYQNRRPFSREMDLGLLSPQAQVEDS
Method: as §1, §2, §3

CDK2/E = CDK2/E (Homo sapiens (Human), UniProt P24941); test: ADP-Glo Kinase Assay, CDK2/E; type: biochemical; conditions: 1 μM compound; for inhibition at 1 µM: read-out: CDK2/E % INH (1 μM)
Method: as §1, §2, §3

DYRK1 = DYRK1 (Homo sapiens (Human), UniProt Q13627); test: ADP-Glo Kinase Assay, DYRK1; type: biochemical; conditions: 1 μM compound; for inhibition at 1 µM: read-out: DYRK1A % INH (1 μM)
Method: as §1, §2, §3

MV4-11 cells = test: Growth inhibition, MTS assay, MV4-11; type: cell-based, Human; conditions: MTS cell viability, read-out: MV4-11 ED50
Source text: (§4) The following cell lines, were obtained and used in tests as outlined below: • Human myelomonocytic, biphenotypic leukemia MV4-11 cells (harboring a Flt3-ITD mutation); • Human Acute Myeloid Leukemia MOLM16 cells; • Human Acute Myeloid Leukemia MOLM13 cells (harboring a Flt3-ITD mutation); • Human Myeloid Leukemia KG-1 cells; • Human erythroleukemia HEL92 cells; • Human mantle cell lymphoma Jeko-1 cells; • Human hepatocellular carcinoma HepG2 cells; and • Human colon adenocarcinoma SW-480 cells.
(§5) The assays were carried out according to the following protocol, which is described as an example for the MV4-11 cells:
(§6) Ten thousand MV4-11 cells were inoculated into each well of a 96-well microplate (manufactured by Corning Corp.) using Iscove's MDM medium (culture medium) containing 10% fetal calf serum (FCS). The same day, a dimethyl sulfoxide (DMSO) solution of each test compound prepared in a concentration of 10 mmol/L was further diluted with DMSO to the desired concentrations (0.1, 0.5, 1, 2.5, 5 and 10 micromol/L), and the diluted solution was added to each well. The individual wells were further cultured in 5% carbon dioxide at 37° C. for 72 hours. […] Briefly, 10 μl MTS (3-(4,5-Dimethyl-2-thiazolyl)-5-(carboxymethoxyphenyl)-2-(4-sulfophenyl)-2H-tetrazolium was added to each well, and culturing was performed in 5% carbon dioxide at 37° C. for 2 hours. After this incubation and using a microplate spectrophotometer (Synergy 2 multi-mode microplate reader (BioTek)), the absorbance of each well was measured at 490 nm. The value for cells not incubated with a test compound was designated as 100%. By comparing these values with the absorbance difference obtained at the well in which each test compound was added, the cell viability (% viability) after treatment with the test compound was calculated.

HEL92 cells = test: Growth inhibition, MTS assay, HEL92; type: cell-based, Human; conditions: MTS cell viability, read-out: HEL92 ED50
Source text: as §4, §5, §6

HepG2 cells = test: Growth inhibition, MTS assay, HepG2; type: cell-based, Human; conditions: MTS cell viability, read-out: HepG2 ED50
Source text: as §4, §5, §6

Chain of Pim-1 (P11309 whole entry): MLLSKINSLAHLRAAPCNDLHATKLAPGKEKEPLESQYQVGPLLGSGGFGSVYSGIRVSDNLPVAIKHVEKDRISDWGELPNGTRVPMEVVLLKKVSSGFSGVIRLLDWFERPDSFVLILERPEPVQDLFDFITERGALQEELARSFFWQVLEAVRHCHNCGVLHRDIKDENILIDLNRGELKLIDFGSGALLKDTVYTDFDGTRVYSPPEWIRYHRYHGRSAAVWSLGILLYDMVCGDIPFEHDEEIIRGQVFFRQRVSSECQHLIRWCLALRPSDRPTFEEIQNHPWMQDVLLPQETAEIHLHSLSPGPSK

SMILES	inhibition at 1 µM (Pim-1) [%]	inhibition at 1 µM (Pim-2) [%]	inhibition at 1 µM (Pim-3) [%]	inhibition at 1 µM (FLT3wt) [%]	inhibition at 1 µM (CDK2/E) [%]	inhibition at 1 µM (DYRK1) [%]	IC50 (MV4-11 cells; Homo sapiens, MV4-11, 72 h) [nM]	IC50 (HEL92 cells; Homo sapiens, 72 h) [µM]	IC50 (HepG2 cells; Homo sapiens, HepG2, 72 h) [nM]	Pim-1 % INH (1 μM) (Pim-1) [%]	Pim-2 % INH (1 μM) (Pim-2) [%]	Pim-3 % INH (1 μM) (Pim-3) [%]	Flt3wt % INH (1 μM) (FLT3wt) [%]	CDK2/E % INH (1 μM) (CDK2/E) [%]	DYRK1A % INH (1 μM) (DYRK1) [%]	IC50 (MV4-11 cells; 72 hours) [nM]	IC50 (HEL92 cells; 72 hours) [µM]	IC50 (HepG2 cells; 72 hours) [nM]
CC(O)Cn1c(N2CCNCC2)nc2c([N+](=O)[O-])c(Br)c(Br)cc21 (centres unmarked) [Example 1BS]	> 95	21	48	39	21	66	900	4.6	3600									
O=[N+]([O-])c1c(Br)c(Br)cc2c1nc(N1CCNCC1)n2CC1CCC1 [Example 2F, 5,6-dibromo-1-(cyclobutylmethyl)-4-nitro-2-(piperazin-1-yl)-1H-1,3-benzodiazole hydrochloride]	> 95	70	89	78	15	> 95	300	2.1	1800									
O=[N+]([O-])c1c(Br)c(Br)cc2c1nc(N[C@H]1CCNC1)n2CC1CC1 [Example 1CI]										>95	64	75	19	10	57	1600	6.1	1400
CC(C)n1c(N2CCN[C@H](C)C2)nc2c([N+](=O)[O-])c(Br)c(Br)cc21 [Example 22AA, 5,6-dibromo-2-[(3R)-3-methylpiperazin-1-yl]-4-nitro-1-(propan-2-yl)-1H-1,3-benzodiazole]	> 95	36	88	49	11	43	500	1.2	1800									
CC(C)n1c(NC2CCCNC2)nc2c(C#N)c(Br)c(Br)cc21 (centres unmarked) [Example 1BT]	70	16	56	23	26	22	500	5.7	1200									
CC(C)n1c(N2CCC[C@H](N)C2)nc2c(C#N)c(Br)c(Br)cc21 [Example 1BV]								5.3		>95	82	91	39	11	80	5100		2900
N[C@@H]1CCN(c2nc3c([N+](=O)[O-])c(Br)c(Br)cc3n2CC2CC2)C1 [Example 1BG]										>95	82	>95	23	<5	>95	1600		4000
CC(C)Cn1c(N2CCC[C@@H](N)C2)nc2c([N+](=O)[O-])c(Br)c(Br)cc21.Cl [Example 1AU]										>95	52	68	7	<5		2400	5.8	1900
CC(C)n1c(N2CCN[C@@H](C)C2)nc2c([N+](=O)[O-])c(Br)c(Br)cc21 [Example 22Z, 5,6-dibromo-2-[(3S)-3-methylpiperazin-1-yl]-4-nitro-1-(propan-2-yl)-1H-1,3-benzodiazole]	> 95	37	85	73		63	700	2.4	1600									
CC(C)n1c(NCC2CNCCO2)nc2c(C#N)c(Br)c(Br)cc21 (centres unmarked) [Example 1BN]	> 95	29	77	< 5	< 5	21	1900		5100									
CC(C)n1c(N2CCC[C@H](N)C2)nc2c(C#N)c(Br)c(Br)cc21 [Example 1BJ]	> 95	82	> 95	31					4800					<5	54	600		
CCn1c(N2CCC[C@H](N)C2)nc2c([N+](=O)[O-])c(Cl)c(Cl)cc21 [Example 1CT]										>95	28	64	7	6	22	2700		6000
CCn1c(Nc2ccccc2N)nc2c([N+](=O)[O-])c(Br)c(Br)cc21 [Example 22N, 1-N-(5,6-dibromo-1-ethyl-4-nitro-1H-1,3-benzodiazol-2-yl)benzene-1,2-diamine]	82	23	44	< 5	< 5	21	2600		4200									
